Series [1] can be described thus: Subcutaneous injection of FLAMP solution (control): 19F MRS in vivo at the site of injection. Also noted: species or system rat. As for the experimental part: Subcutaneous injection of 34 mcmol FLAMP, along with 0.5 mcmol Gd-DTPA, as a 1 ml-solution in an adult male rat, 19F MRS in vivo at the site of injection. Relative FLAMP signal (peak area of FLAMP / peak area of external NaF standard) versus time after injection.
(§1) A solution of the drug and the contrast agent was injected subcutaneously, followed by local MRS and MRI monitoring as in Example 2, in order to test whether either agent might be locally detectable even after release from the depot preparation. The injection volume (1 ml) and the amount of drug (FLAMP, 34 mcmoles) were the same as in Example 2 while the amount of contrast agent was doubled (Gd-DTPA, 0.5 mcmol).

For series [2] the following is noted: course of plasma level corresponds to that after intravenous application; cited from earlier work.
Series [3] is described as follows: Subcutaneous liposome depot preparation in rats: amount of FLAMP at the site of injection by 19F-MRS in vivo. Also noted: species or system Wistar rats. As for the experimental part:
2 ml aqua bidest., 1,7 µl Magnevist™ and 200 mg Phospholipon™ 90H were added to a bottle for injection of Fludara™. The mixture was mixed by hand for 20 min. at room temperature. Then, the mixture was subjected to 6 cycles of vortexing for 2 min. and placing in a water bath at 64°C for 3 min.. Subsequently, the mixture was subjected to 6 cycles of holding in liquid nitrogen for 3 min. and placing in a water bath at 64°C for 6 min. Finally, the mixture was washed for four times with each of 10 ml phosphate buffer. After each washing step, the mixture was centrifuged for 15 min. at 10,000 x g. A colorless preparation having a consistency of a paste was obtained which was transferred to a syringe.
Adult male Wistar rats were bred in twos in isolators and received Altromin™ and water ad libitum. At day 1, in the morning rats were subcutaneously injected once with 1 ml of the pharmaceutical composition described in Example 1 into the right flank ("Luer"-canulla No.12 with screw thread). Injections and NMR-measurements were carried with rats which had been previously subjected to inhalation anesthesia (77% N2, 22% O2 and 1 - 1,2% Isofluran™) .
At day 1, in the morning (after the formulation had been injected) and in the afternoon, respectively, as well as at days 4, 13, 22, 29, 36 and 43 the following NMR-measurements were carried out: The amount of Fludarabin monophosphate (FLAMP) at the site of injection was determined by ^19F-MRS and the volume and the contrast intensity of the drug depot was measured by MRT.
A 1,5-T whole body tomograph(Magnetom Vision Plus, Siemens AG, Erlangen, Germany) was used for the NMR-measurements. For both, the ^19F-MRS and the ^1H-imaging a volume resonator which had been constructed by the DKFZ (resonance frequency: 63,6 MHz (^1H) , 59,9 MHz (^19F) with an inner diameter of 8.4 cm was used which served as transmitting- and receiving coil.
After the rats had been positioned (subcutaneous liposome depot in the middle of the resonator) the volume resonator was manually tuned to the ^1H resonance frequency. After "Shim" (optimization of field homogeneity) by use of the ^1H-tissue water resonance line and subsequent tuning of the coil to the ^19F resonance frequency the ^19F spectra were recorded. The reading sequence comprised a simple non-layer-specific pulsed excitation with subsequent recording of 1024 readings in 51.2 ms corresponding to the fast T2-decay of the FID. The recording period of TA = 33:21 min. resulted from a repetition time TR = 100 ms and a number of NEX = 20000 excitations.
In order to get a reference for the chemical shift and the signal intensity of FLAMP a 0.5 ml reference solution containing 400 mM NaF was applied to the middle of the underside of the volume resonator with the resonance of this solution being at about -40 ppm (with reference to TFA). The follow-up editing of the spectra was carried out by use of the software LUISE which is implemented to the tomograph. […] The relation of the integrals of the resonances of FLAMP to NaF served as a reference value for the individual readings. ^1H-imaging with high resolution was carried with a T1-weighted 3D-gradient-echo-method (3D-FLASH) with lipid saturation (parameters used for measurements: TR = 45 ms; TE = 11 ms; α = 30; FOV = 50 mm; matrix-size = 128 x 128; period of acquisition for the individual readings: 15,36 ms). Multiple transverse layer images of the liposome depots were recorded with layers having an actual thickness of 2, 1- and 0,4 mm, respectively. […]

The nature of series [4]: Subcutaneous injection of Gd-DTPA solution (control): 1H MR imaging at the site of injection. Type of series: in vivo, rat. As for the experimental part: Subcutaneous injection of 0.5 mcmol Gd-DTPA (along with 34 mcmol FLAMP), as a 1 ml-solution in an adult male rat (left flank). Transversal 1H MR images (slice thickness 2 mm) from the region of the injection, taken 85 min after injection. Images numbered in caudal-cranial direction.
as §1

Regarding `Nc1nc(F)nc2c1ncn2[C@@H]1O[C@H](COP(=O)(O)O)[C@@H](O)[C@@H]1O` [FLAMP, Fludarabin-5'-monophosphate], the “19F MRS signal from the drug at the site of injection” value was “about the same as on day 1 after injecting the depot preparation” in series [1] (8 min after s.c. injection of solution, 34 mcmoles FLAMP in 1 ml) and “no longer detectable” in series [1] (after 24 hours, s.c. solution, 34 mcmoles FLAMP). Moreover, the “disappearance of MRS signals from the drug itself or indistinguishable metabolites” value in series [1] (drug injected as a solution) is on record as “disappear within a few hours”. Moreover, the “drop of 19F MRS signal from the drug” value in series [1] (within 5 hours after s.c. injection of solution, 34 mcmoles FLAMP) is reported as “more than 90”. Further, the “absorption after subcutaneous application” value in series [2] is “immediately absorbed”. Further, the “drug amounts injected still present at the site of injection” value in series [3] (day 13 post injection, s.c. 1 ml liposome depot (Phospholipon, Fludara, Magnevist), 19F-NMR-spectroscopy) came out at 70%; in series [3] (end of the experiment (day 43, six weeks), s.c. liposome depot), 10%. The “amounts of drug available for release, of the amounts initially injected” value in series [3] (end of the period, about six weeks after subcutaneous injection of depot) is listed as 12%; in series [3] (start of the period, about one week after subcutaneous injection of depot) it was 70%. The “time at which amount of FLAMP at the site of injection started to decrease continuously” value in series [3] (s.c. liposome depot, 19F-MRS) is listed as “About one week after injection”.

For gadolinium-DPTA [Gd-DTPA], in series [4] (85 min after s.c. injection of solution, 0.5 mcmol Gd-DTPA), the “contrast enhancement at the site of injection (1H-images, 24 adjacent 2 mm layers)” value is reported as “only a faint diffuse contrast enhancement was detectable in three adjacent layers”. Moreover, the “area of remaining contrast enhancement” value in series [4] (85 min after s.c. injection of solution, 0.5 mcmol Gd-DTPA, three adjacent layers) is listed as “about 212 mm”. Further, the “contrast enhancement left at the site of administration” value in series [4] (one and a half hours after subcutaneous injection of Gd-DTPA solution) is reported as “Almost no contrast enhancement was left”.
